Assay results from patent US20080249174A1, “Animal Model for Studying Atherosclerotic Lesions” (THE RESEARCH FOUNDATION OF STATE UNIVERSITY OF NEW YORK, priority 2005, published 2008).
Marks after values point to notes of the source that are not given here.

What was measured:
apoE KO mice [1] = test: Plasma lipid measurement after myriocin administration; type: in vivo, mouse; conditions: for Plasma PC: PC = total phospholipid minus SM; for Plasma SM: n=7; for PC/SM ratio increased / plasma PC levels increased / plasma SM levels decreased: vs control; for PC/SM ratio increased / plasma PC levels increased: p<0.0001
Method: (§1) Eight-week-old apoE KO micewere purchased from The Jackson Laboratory (Bar Harbor, Me.). Myriocin (0.3 mg/kg) (Biomol Research Laboratories Inc.) or phosphate buffered saline was injected intraperitoneally every other day for 8 weeks. The animals were on Purina Rodent Chow (catalog number 5001) or a high fat, high cholesterol diet (20% milk fat and 0.15% cholesterol; Harlan Teklad, Madison, Wis.).
(§2) Fasting plasma was collected for fast protein liquid chromatography (FPLC) separation and lipid measurement. Total cholesterol, phospholipids and triglyceride inplasma, and lipoproteins were assayed by enzymatic methods (WakoPure Chemical Industries Ltd., Osaka, Japan). Plasma sphingomyelin was measured as described previously (JBC13). PC concentration was obtained by subtracting SM from total phospholipid concentration. Apolipoprotein analysis using SDS-PAGE was also done as describedpreviously (JBC 14).

apoE KO mice [2] = test: Plasma sphingolipid analysis by mass spectrometry after myriocin administration; type: in vivo, mouse; conditions: for Plasma C14Cer / Plasma C16Cer / Plasma C18:1Cer / Plasma C18Cer / Plasma C20Cer / Plasma C24:1Cer / Plasma C24Cer / Plasma DHSph / Plasma DHSph-1P / Plasma S1P / Plasma Sph: myriocin 0.3 mg/kg i.p. 8 weeks, n=7
Method: as §1
Plasma sphingosinebases, sphingoid base-1-phosphates, and ceramide species were performed on a Thermo Finnigan TSQ 7000 triple quadrupole mass spectrometer operating in a multiple reaction monitoring, positive ionization mode at the Department of Biochemistry and Molecular Biology, Medical University of South Carolina, on a fee-for-service basis. Briefly, 250 μl of mouse plasma was fortified with the internal standards (IC17 base D-erythro-sphingosine (17C-Sph), C17 sphingosine-1-phosphate (17C—S1P), N-palmitoyl-D-erythro-C13 sphingosine (13C-Cer), and heptadecanoyl-D-erythro-sphingosine (C17-Cer)) and extracted with ethyl acetate/iso-propanol/water (60:30:10) (v/v) solvent system. After evaporation and reconstitution in 100 μl of methanol, samples were injected onto the Surveyor/TSQ 7000 liquid chromatography/mass spectrometry system, and gradient was eluted from a BDSHypersil C8, 150×3.2-mm, 3-μm particle size column with a 1 mM methanolic ammonium formate, 2 mM aqueous ammonium formate mobile phase system. Peaks corresponding to the target analytes and internal standards were collected and processed using the Xcalibur software system. Quantitative analysis was based on the calibration curves generated by spiking an artificial matrix with the known amounts of the target analyte synthetic standards and an equal amount of the internal standards. The target analyte/internal standard peak area ratios were plotted against analyte concentration. The target analyte/internal standard peak area ratios from the samples were similarly normalized to their respective internal standards and compared with the calibration curves using a linear regression model.

apoE KO mice [3] = test: FPLC lipid distribution among lipoproteins with or without myriocin; type: in vivo, mouse
Method: Aliquots of 200 μl of pooled plasma from mice (n=7) with or without myriocin treatment were analyzed by FPLC (V, VLDL; L, LDL; and H, HDL). An aliquot of each fraction was used for the determination of SM (FIG. 6A), PC (FIG. 6B), and cholesterol (FIG. 6C).
Aliquots of 200 μl of pooled plasma from mice (n=7) with or without myriocin treatment were analyzed by FPLC (V, VLDL; L, LDL; and H, HDL). An aliquot of each fraction was used for the determination of SM (FIG. 7A), PC (FIG. 7B), and cholesterol (FIG. 7C).
as §2
To investigate the lipid distribution among the lipoproteins with or without myriocin treatment, FPLC was utilized to fractionize lipoproteins and measured SM, PL, and cholesterol in each fraction.

T-lymphocyte populations = conditions: myriocin 1 mg/kg (but not 0.3 mg/kg); cited from earlier work
[4] = cited from earlier work
apoE KO mice [5] = conditions: oral myriocin, high cholesterol diet; cited from earlier work
[6] = chow diet, myriocin 0.3 mg/kg i.p. 8 weeks
[7] = high fat diet, myriocin 0.3 mg/kg i.p. 8 weeks
[8] = high fat, high cholesterol (Western type) diet 8 weeks
[9] = high fat, high cholesterol diet
[10] = chow diet, pooled plasma n=7, FIG. 6
[11] = high fat diet, pooled plasma n=7, FIG. 7

For `CCCCCCC(=O)CCCCCC/C=C/C[C@@H](O)[C@H](O)[C@@](N)(CO)C(=O)O` [Myriocin, myriocin], the “total cholesterol levels, change after myriocin” value (apoE KO mice [1]; chow diet) was “not significantly changed”, the “triglyceride levels, change after myriocin” value (apoE KO mice [1]; chow diet) was “not significantly changed” and the PC/SM (apoE KO mice [1]; [6]) was 12.1 ± 0.2a. The “Plasma Chol” value (apoE KO mice [1]; [6]) was 660 ± 105 mg/dL, the “Plasma TG” value (apoE KO mice [1]; [6]) was 75 ± 19 mg/dL and the “Plasma PC” value (apoE KO mice [1]; [6]) was 399 ± 59^a mg/dl. The “Plasma SM” value (apoE KO mice [1]; chow diet, myriocin 0.3 mg/kg i.p. every other day 8 weeks, mean ± S.D.) was 33 ± 3^a mg/dl, the PC/SM ratio increased (apoE KO mice [1]; chow diet) was 317% and the “plasma PC levels increased” value (apoE KO mice [1]; chow diet) was 91%. The “plasma SM levels decreased” value (apoE KO mice [1]; chow diet, p<0.001) was 54%, the PC/SM (apoE KO mice [1]; [7]) was 16.9 and the “Plasma Chol” value (apoE KO mice [1]; [7]) was 1807 ± 342 mg/dL. The “Plasma TG” value (apoE KO mice [1]; [7]) was 107 ± 27 mg/dL, the “Plasma SM” value (apoE KO mice [1]; [7]) was 47 ± 14^a mg/dl and the “Plasma PC” value (apoE KO mice [1]; [7]) was 795 ± 97^a mg/dl. The “plasma SM levels decreased” value (apoE KO mice [1]; [8]) was 59%, the PC/SM ratio increased (apoE KO mice [1]; [8]) was 380% and the “plasma PC levels increased” value (apoE KO mice [1]; [8]) was 100%. The “total cholesterol levels, change after myriocin” value (apoE KO mice [1]; [9]) was “not significantly changed”, the “triglyceride levels, change after myriocin” value (apoE KO mice [1]; [9]) was “not significantly changed” and the “plasma Cer, change after myriocin treatment” value (apoE KO mice [2]; chow diet) was “significantly decreased”. For the same molecule, the “plasma S1P, change after myriocin treatment” value (apoE KO mice [2]; chow diet) was “significantly decreased”, the “plasma Sph, change after myriocin treatment” value (apoE KO mice [2]; chow diet) was “significantly decreased” and the “Plasma C14Cer” value (apoE KO mice [2]; chow diet) was 12 ± 2^a nM. The “Plasma C16Cer” value (apoE KO mice [2]; chow diet) was 11 ± 3^a nM, the “Plasma C18:1Cer” value (apoE KO mice [2]; chow diet) was 2 ± 1^a nM and the “Plasma C18Cer” value (apoE KO mice [2]; chow diet) was 51 ± 8^a nM. For the same molecule, the “Plasma C20Cer” value (apoE KO mice [2]; chow diet) was 35 ± 9^a nM, the “Plasma C24:1Cer” value (apoE KO mice [2]; chow diet) was 854 ± 144^a nM and the “Plasma C24Cer” value (apoE KO mice [2]; chow diet) was 1321 ± 22^a nM. For the same molecule, the “Plasma DHSph” value (apoE KO mice [2]; chow diet) was 30 ± 3 nM, the “Plasma DHSph-1P” value (apoE KO mice [2]; chow diet) was 9 ± 5^a nM and the “Plasma S1P” value (apoE KO mice [2]; chow diet) was 58 ± 9^a nM. For the same molecule, the “Plasma Sph” value (apoE KO mice [2]; chow diet) was 127 ± 8^a nM, the “Plasma S1P” value (apoE KO mice [2]; chow diet, listed as myriocin) was < 100 nM and the “Plasma C14Cer” value (apoE KO mice [2]; high fat diet) was 20 ± 2 nM. For the same molecule, the “Plasma C16Cer” value (apoE KO mice [2]; high fat diet) was 12 ± 6^a nM, the “Plasma C18:1Cer” value (apoE KO mice [2]; high fat diet) was 9 ± 1^a nM and the “Plasma C18Cer” value (apoE KO mice [2]; high fat diet) was 36 ± 14^a nM. For the same molecule, the “Plasma C20Cer” value (apoE KO mice [2]; high fat diet) was 45 ± 11^a nM, the “Plasma C24:1Cer” value (apoE KO mice [2]; high fat diet) was 1009 ± 134^a nM and the “Plasma C24Cer” value (apoE KO mice [2]; high fat diet) was 1708 ± 426^a nM. The “Plasma DHSph” value (apoE KO mice [2]; high fat diet) was 20 ± 1^a nM, the “Plasma DHSph-1P” value (apoE KO mice [2]; high fat diet) was 10 ± 2^a nM and the “Plasma S1P” value (apoE KO mice [2]; high fat diet) was 42 ± 19^a nM. The “Plasma Sph” value (apoE KO mice [2]; high fat diet) was 114 ± 19^a nM, the “plasma Cer, change after myriocin treatment” value (apoE KO mice [2]; [9]) was “dramatically decreased” and the “plasma S1P, change after myriocin treatment” value (apoE KO mice [2]; [9]) was “dramatically decreased”. The “plasma Sph, change after myriocin treatment” value (apoE KO mice [2]; [9]) was “dramatically decreased”, the “PC in FPLC lipoprotein fractions” value (apoE KO mice [3]; [10]) was “increased” and the “SM in FPLC lipoprotein fractions” value (apoE KO mice [3]; [10]) was “significantly decreased”. The “cholesterol in FPLC lipoprotein fractions” value (apoE KO mice [3]; [10]) was “no significant effect”, the “PC in FPLC lipoprotein fractions” value (apoE KO mice [3]; [11]) was “increased” and the “SM in FPLC lipoprotein fractions” value (apoE KO mice [3]; [11]) was “dramatically decreased”. The “cholesterol in FPLC lipoprotein fractions” value (apoE KO mice [3]; [11]) was “no effect”, the “effect on T-lymphocyte populations in mice” value (T-lymphocyte populations) was “reduces T-lymphocyte populations” and the “toxicity of oral administration” value [4] was “serious gastrointestinal toxicity”. The atherosclerotic lesions (apoE KO mice [5]) was “dramatic reduction”, the “plasma SM levels” value (apoE KO mice [5]) was “significant reduction” and the plasma cholesterol levels (apoE KO mice [5]) was “significant reduction”.
